Source: BindingDB's records for doi:10.1016/j.bmc.2016.06.011 (Florida A&M University, 2016)

Key:
[1] = biological target: T1, D(4) dopamine receptor (Homo sapiens, UniProt P21917); test: Displacement of [3H]N-methylspiperone from human recombinant dopamine D4 receptor incubated for […] by microbeta scintillation counting method
T1 sequence (P21917 whole entry): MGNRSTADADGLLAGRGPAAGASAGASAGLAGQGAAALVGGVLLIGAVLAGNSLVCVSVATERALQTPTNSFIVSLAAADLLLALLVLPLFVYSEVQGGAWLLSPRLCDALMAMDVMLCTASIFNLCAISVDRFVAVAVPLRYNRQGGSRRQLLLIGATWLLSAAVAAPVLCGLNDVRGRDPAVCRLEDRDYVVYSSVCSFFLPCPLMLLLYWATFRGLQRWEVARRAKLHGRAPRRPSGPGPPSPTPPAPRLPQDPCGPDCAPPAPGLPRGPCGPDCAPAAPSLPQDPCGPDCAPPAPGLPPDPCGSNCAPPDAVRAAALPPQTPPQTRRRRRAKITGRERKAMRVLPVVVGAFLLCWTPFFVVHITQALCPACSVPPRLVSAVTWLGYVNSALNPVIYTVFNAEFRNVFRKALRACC

[2] = biological target: 5-hydroxytryptamine receptor 2A (Homo sapiens, UniProt P28223); test: Displacement of [3H]Ketanserin from human recombinant 5HT2A receptor incubated for […] by microbeta scintillation counting method
[3] = biological target: T2, 5-hydroxytryptamine receptor 2C (Homo sapiens, UniProt P28335); test: Displacement of [3H]Mesulergine from human recombinant 5HT2C receptor incubated for […] by microbeta scintillation counting method
T2 sequence (P28335 whole entry): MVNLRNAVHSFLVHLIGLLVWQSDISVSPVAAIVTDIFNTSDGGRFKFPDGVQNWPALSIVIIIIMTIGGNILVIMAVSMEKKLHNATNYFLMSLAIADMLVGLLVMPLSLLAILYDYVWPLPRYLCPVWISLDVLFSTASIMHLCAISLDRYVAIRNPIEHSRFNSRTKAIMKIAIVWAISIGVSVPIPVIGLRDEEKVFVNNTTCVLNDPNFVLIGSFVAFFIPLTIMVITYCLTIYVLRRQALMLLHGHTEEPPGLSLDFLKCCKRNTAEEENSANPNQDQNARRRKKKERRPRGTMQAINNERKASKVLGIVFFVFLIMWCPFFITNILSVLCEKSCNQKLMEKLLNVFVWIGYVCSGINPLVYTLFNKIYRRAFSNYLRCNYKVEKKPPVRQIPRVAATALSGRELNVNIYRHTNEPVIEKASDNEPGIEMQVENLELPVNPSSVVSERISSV

5-hydroxytryptamine receptor 2A, sequence (P28223 whole entry): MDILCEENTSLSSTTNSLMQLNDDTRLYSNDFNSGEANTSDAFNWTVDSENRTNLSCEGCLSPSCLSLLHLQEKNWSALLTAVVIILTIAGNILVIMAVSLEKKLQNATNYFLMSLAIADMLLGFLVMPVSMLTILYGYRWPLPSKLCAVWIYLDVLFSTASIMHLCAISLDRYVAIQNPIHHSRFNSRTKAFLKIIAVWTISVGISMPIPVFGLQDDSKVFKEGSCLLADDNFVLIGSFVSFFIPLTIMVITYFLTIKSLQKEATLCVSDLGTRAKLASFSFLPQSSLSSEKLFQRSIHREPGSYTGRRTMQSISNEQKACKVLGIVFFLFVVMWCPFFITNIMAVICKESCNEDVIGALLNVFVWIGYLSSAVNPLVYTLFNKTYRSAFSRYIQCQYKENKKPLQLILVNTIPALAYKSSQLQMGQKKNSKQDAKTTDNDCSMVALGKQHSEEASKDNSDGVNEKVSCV

Compound | Ki [1] [nM] | Ki [2] [nM] | Ki [3] [nM]
O=C(CCCCN1CCC(n2c(=O)[nH]c3cc(Cl)ccc32)CC1)c1nc2ccccc2s1 | 1700 |  | 
OC1(c2ccc(Cl)cc2)CC2CCC(C1)N2CCCCc1nc2ccccc2s1 (centres undefined) |  | > 10000 | 4570
OC1(c2ccc(Cl)cc2)CCN(CCCCc2nc3ccccc3s2)CC1 | 141 |  | 
